Test results from ChEMBL document CHEMBL1629509, “Design, synthesis and inhibitory activity against Mycobacterium tuberculosis thymidine monophosphate kinase of acyclic nucleoside analogues with a distal imidazoquinolinone” (Eur J Med Chem, 2010).
Converted amounts (≈) assume the structure as drawn. The source made the active and inactive calls. The calls are words filed in the database; no cut-off is given here.

Experiments:
[1] = target: T1, Thymidylate kinase (Mycobacterium tuberculosis, UniProt P9WKE1); test: Inhibition of Mycobacterium tuberculosis Thymidine monophosphate kinase by spectrophotometry
T1 sequence (P9WKE1 whole entry): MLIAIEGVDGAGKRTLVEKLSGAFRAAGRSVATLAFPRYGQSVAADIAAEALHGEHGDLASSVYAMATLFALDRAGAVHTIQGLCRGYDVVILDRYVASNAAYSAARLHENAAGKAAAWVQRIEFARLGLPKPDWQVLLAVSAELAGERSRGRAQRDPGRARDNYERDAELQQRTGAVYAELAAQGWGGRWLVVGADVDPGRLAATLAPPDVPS

[2] = test system: Mycolicibacterium smegmatis; test: Antimycobacterial activity against Mycobacterium smegmatis mc2155 assessed as growth inhibition at 160 ug/ml by resazurin microtiter plate assay; assay type: functional, organism-based
[3] = Solubility of the compound in water; assay type: physicochemical

Compound | Ki [1] | Activity [2] | solubility [3]
CC(=O)Nc1cc2c3c(c1)n(C/C=C/Cn1cc(C)c(=O)[nH]c1=O)c(=O)n3CCC2 | 930 nM | inactive | 
O=c1[nH]c(=O)n(C/C=C/CN2c3cccc4c3N(CCC4)S2(=O)=O)cc1Br | 300 nM | inactive | 
CC(=O)NC1Cc2cccc3c2n(c(=O)n3C/C=C/Cn2cc(C)c(=O)[nH]c2=O)C1 (stereo not drawn) | 5800 nM | inactive | 
Cc1cn(C/C=C/CN2c3cccc4cccc(c34)S2(=O)=O)c(=O)[nH]c1=O | 270 nM |  | 
Cc1cn([C@H]2C[C@H](O)[C@@H](COP(=O)(O)O)O2)c(=O)[nH]c1=O [THYMIDINE MONOPHOSPHATE] | 4500 nM |  | 
Cc1cn(C/C=C/Cn2c(=O)n3c4c(cc(N)cc42)CCC3)c(=O)[nH]c1=O | 2460 nM | inactive | 
Cc1cn(C/C=C/Cn2c(=O)n3c4c(cccc42)CCC3)c(=O)[nH]c1=O | 1160 nM | inactive | 
Cc1cn(C/C=C/CN2c3cccc4c3N(CCC4)S2(=O)=O)c(=O)[nH]c1=O | 570 nM | inactive | 
Cc1cn(C/C=C/CN2C(=O)c3cccc4cccc2c34)c(=O)[nH]c1=O | 420 nM |  | 640 µg/mL (≈ 1840 µM)
Cc1cn(C/C=C/Cn2c(=O)n3c4c(cccc42)CC(N)C3)c(=O)[nH]c1=O (stereo not drawn) | 7070 nM | inactive | 
